Data from PMC8639922, “KSHV transactivator-derived small peptide traps coactivators to attenuate MYC and inhibits leukemia and lymphoma cell growth” (Communications Biology, 2021).
Square brackets hold non-standard residues; d marks the D form. Peptide text beside a SMILES is read from it. Orn = NCCC[C@H](N)C(=O)O; βAla = NCCC(=O)O

Tested on: PEL-derived human cytokines
Test: Olink INFLAMMATION panel, cytokines in ascites fluid of PEL xenograft
Assay type: in vivo, mouse
Parameters: key to IL8 / CXCL10 / FGF-19 / IL-12B / TRAIL / VEGFA / IL-17A / CST5 / IL-18R1 / HGF / ARTN / bNGF: NPX, log2-normalized protein expression; key to 4E-BP1 / TWEAK / LAP TGF-beta-1 / Beta-NGF / LAPTGFb-1 / TWAEK / 4EBP-1 / IL-8: log2-scale normalized protein expression (NPX) values
Experimental: Fig. 6 VGN50 inhibits BCBL-1 cell growth in xenograft mice. a PEL-xenograft. BCBL-1 cells (2 × 10^7 cells) were injected i.p. Peptide (10 mg/kg) was administrated i.p. daily and tumor growth was monitored by measurement of body weight (n = 6–9 mice per group). b Ascites volume and PEL cell counts. In a separate experiment, ascites volume and PEL cell counts in ascites fluid were measured at day 10. (n = 3–4 mice per group) c Induction of atrophy. BCBL-1 cells isolated from ascites fluid were measured for FSC-A and SSC-A by flow cytometry. […] (n = 3) d Expression of inflammatory cytokines. Principal component analysis based on expression levels of inflammatory cytokine contents in ascites fluid. e Cytokine heat map. Heatmap generated based on abundance of the indicated cytokines in ascites fluids. Ascites fluid was taken at day 10. a–c Data were analyzed using ordinary one-way Anova followed by Tukey’s multiple comparisons test.
Since PELs are frequently involved in effusions in multiple body cavities in human patients and the amounts of inflammatory cytokines in the effusion are strong prognostic factors, we also extracted ascites fluid and profiled it to see if the PEL cell-derived human cytokine profile was also altered by continued VGN50 treatment.
PEL-derived cytokine profiles in ascites were measured with Olink analysis service with the Olink INFLAMMATION panel using proximity extension technology, a high-throughput multiplex proteomic immunoassay. In short, the panel includes 92 immune-related proteins, primarily cytokines and chemokines. The assay utilizes epitope-specific binding and hybridization of a set of paired oligonucleotide antibody probes, which is subsequently amplified using quantitative PCR, resulting in log base 2-normalized protein expression (NPX) values. The data was processed and analyzed with Olink Insight Stat Analysis software.

Q: With `CC(C)C[C@H](NC(=O)CCNC(=O)[C@H](CCCNC(=N)N)NC(=O)[C@H](CCCNC(=N)N)NC(=O)[C@H](CCCNC(=N)N)NC(=O)[C@H](CCCN)NC(=O)[C@H](CCCNC(=N)N)NC(=O)[C@H](CCCNC(=N)N)NC(=O)[C@H](CCCCN)NC(=O)[C@H](CCCCN)NC(=O)[C@H](N)CCCNC(=N)N)C(=O)N[C@@H](CO)C(=O)N[C@@H](CO)C(=O)N[C@@H](C)C(=O)N[C@@H](C)C(=O)N[C@@H](C)C(=O)NCC(=O)N[C@@H](CC(C)C)C(=O)N[C@@H](Cc1ccc(O)cc1)C(=O)N[C@@H](CCC(N)=O)C(=O)N[C@@H](CC(C)C)C(=O)N[C@@H](CC(=O)O)C(=O)N[C@H](C(=O)O)[C@@H](C)O` [Mt-P] (H-[dR]KKRR[Orn]RRR[βAla]LSSAAAGLYQLDT-OH; N-terminus and C-terminus assumed) as the molecule, how does the 4E-BP1 (sheet Fig.6d-e, animal 1) read?
A: 11.1631

Q: What about the ARTN (sheet Fig.6d-e, animal 1) of the same molecule?
A: 5.386

Q: And the Beta-NGF (sheet Fig.6d-e, animal 1)?
A: -0.391

Q: What about the CST5 (sheet Fig.6d-e, animal 1) of the same molecule?
A: 1.859

Q: What about the CXCL10 (sheet Fig.6d-e, animal 1) of the same molecule?
A: 13.3461

Q: What about the FGF-19 (sheet Fig.6d-e, animal 1) of the same molecule?
A: 2.165

Q: And the HGF (sheet Fig.6d-e, animal 1)?
A: 6.396

Q: And the IL8 (sheet Fig.6d-e, animal 1)?
A: 0.86

Q: What about the IL-12B (sheet Fig.6d-e, animal 1) of the same molecule?
A: 2.007

Q: And the IL-17A (sheet Fig.6d-e, animal 1)?
A: 3.739

Q: What about the IL-18R1 (sheet Fig.6d-e, animal 1) of the same molecule?
A: 4.131

Q: And the “LAP TGF-beta-1” value (sheet Fig.6d-e, animal 1)?
A: 6.199

Q: What about the TRAIL (sheet Fig.6d-e, animal 1) of the same molecule?
A: 1.379

Q: What about the TWEAK (sheet Fig.6d-e, animal 1) of the same molecule?
A: 8.018

Q: And the VEGFA (sheet Fig.6d-e, animal 1)?
A: 14.7314

Q: What about the 4E-BP1 (sheet Fig.6d-e, animal 2) of the same molecule?
A: 11.0835

Q: And the ARTN (sheet Fig.6d-e, animal 2)?
A: 5.243

Q: And the Beta-NGF (sheet Fig.6d-e, animal 2)?
A: -0.4548

Q: And the CST5 (sheet Fig.6d-e, animal 2)?
A: 2.027

Q: And the CXCL10 (sheet Fig.6d-e, animal 2)?
A: 13.3201

Q: And the FGF-19 (sheet Fig.6d-e, animal 2)?
A: 2.0905

Q: And the HGF (sheet Fig.6d-e, animal 2)?
A: 6.305

Q: What about the IL8 (sheet Fig.6d-e, animal 2) of the same molecule?
A: 0.7089

Q: What about the IL-12B (sheet Fig.6d-e, animal 2) of the same molecule?
A: 2.204

Q: What about the IL-17A (sheet Fig.6d-e, animal 2) of the same molecule?
A: 3.881

Q: And the IL-18R1 (sheet Fig.6d-e, animal 2)?
A: 4.133

Q: And the “LAP TGF-beta-1” value (sheet Fig.6d-e, animal 2)?
A: 6.253

Q: What about the TRAIL (sheet Fig.6d-e, animal 2) of the same molecule?
A: 1.569

Q: And the TWEAK (sheet Fig.6d-e, animal 2)?
A: 8.091

Q: And the VEGFA (sheet Fig.6d-e, animal 2)?
A: 14.6793

Q: And the 4E-BP1 (sheet Fig.6d-e, animal 3)?
A: 10.8123

Q: And the ARTN (sheet Fig.6d-e, animal 3)?
A: 5.723

Q: What about the Beta-NGF (sheet Fig.6d-e, animal 3) of the same molecule?
A: -0.3222

Q: What about the CST5 (sheet Fig.6d-e, animal 3) of the same molecule?
A: 2.133

Q: What about the CXCL10 (sheet Fig.6d-e, animal 3) of the same molecule?
A: 13.0806

Q: What about the FGF-19 (sheet Fig.6d-e, animal 3) of the same molecule?
A: 2.37

Q: And the HGF (sheet Fig.6d-e, animal 3)?
A: 6.6

Q: And the IL8 (sheet Fig.6d-e, animal 3)?
A: 0.7009

Q: And the IL-12B (sheet Fig.6d-e, animal 3)?
A: 2.082

Q: What about the IL-17A (sheet Fig.6d-e, animal 3) of the same molecule?
A: 4.127

Q: And the IL-18R1 (sheet Fig.6d-e, animal 3)?
A: 4.157

Q: What about the “LAP TGF-beta-1” value (sheet Fig.6d-e, animal 3) of the same molecule?
A: 6.359

Q: And the TRAIL (sheet Fig.6d-e, animal 3)?
A: 1.603

Q: What about the TWEAK (sheet Fig.6d-e, animal 3) of the same molecule?
A: 8.37

Q: And the VEGFA (sheet Fig.6d-e, animal 3)?
A: 14.8087

Q: And the 4EBP-1 (sheet SFig5, animal 1)?
A: 11.7332

Q: What about the ARTN (sheet SFig5, animal 1) of the same molecule?
A: 5.386

Q: And the CST5 (sheet SFig5, animal 1)?
A: 1.859

Q: What about the FGF-19 (sheet SFig5, animal 1) of the same molecule?
A: 2.165

Q: What about the HGF (sheet SFig5, animal 1) of the same molecule?
A: 4.42

Q: And the IL-8 (sheet SFig5, animal 1)?
A: 0.86

Q: What about the IL-12B (sheet SFig5, animal 1) of the same molecule?
A: 2.007

Q: What about the IL-17A (sheet SFig5, animal 1) of the same molecule?
A: 1.782

Q: And the IL-18R1 (sheet SFig5, animal 1)?
A: 4.131

Q: And the LAPTGFb-1 (sheet SFig5, animal 1)?
A: 4.365

Q: And the TRAIL (sheet SFig5, animal 1)?
A: 1.379

Q: And the TWAEK (sheet SFig5, animal 1)?
A: 5.713

Q: And the VEGFA (sheet SFig5, animal 1)?
A: 13.2543

Q: And the bNGF (sheet SFig5, animal 1)?
A: -0.391

Q: What about the 4EBP-1 (sheet SFig5, animal 2) of the same molecule?
A: 11.7927

Q: And the ARTN (sheet SFig5, animal 2)?
A: 5.243

Q: And the CST5 (sheet SFig5, animal 2)?
A: 2.027

Q: And the CXCL10 (sheet SFig5, animal 2)?
A: 11.2953

Q: What about the FGF-19 (sheet SFig5, animal 2) of the same molecule?
A: 2.0905

Q: What about the HGF (sheet SFig5, animal 2) of the same molecule?
A: 4.269

Q: And the IL-8 (sheet SFig5, animal 2)?
A: 0.7089

Q: And the IL-12B (sheet SFig5, animal 2)?
A: 2.204

Q: What about the IL-17A (sheet SFig5, animal 2) of the same molecule?
A: 1.942

Q: What about the IL-18R1 (sheet SFig5, animal 2) of the same molecule?
A: 4.133

Q: And the LAPTGFb-1 (sheet SFig5, animal 2)?
A: 4.29

Q: And the TRAIL (sheet SFig5, animal 2)?
A: 1.569

Q: And the TWAEK (sheet SFig5, animal 2)?
A: 5.701

Q: And the VEGFA (sheet SFig5, animal 2)?
A: 13.2545

Q: And the bNGF (sheet SFig5, animal 2)?
A: -0.4548

Q: And the 4EBP-1 (sheet SFig5, animal 3)?
A: 11.484

Q: What about the ARTN (sheet SFig5, animal 3) of the same molecule?
A: 5.723

Q: And the CST5 (sheet SFig5, animal 3)?
A: 2.133

Q: And the CXCL10 (sheet SFig5, animal 3)?
A: 11.1526

Q: And the FGF-19 (sheet SFig5, animal 3)?
A: 2.37

Q: What about the HGF (sheet SFig5, animal 3) of the same molecule?
A: 4.697

Q: And the IL-8 (sheet SFig5, animal 3)?
A: 0.7009

Q: What about the IL-12B (sheet SFig5, animal 3) of the same molecule?
A: 2.082

Q: And the IL-17A (sheet SFig5, animal 3)?
A: 2.371

Q: And the IL-18R1 (sheet SFig5, animal 3)?
A: 4.157

Q: What about the LAPTGFb-1 (sheet SFig5, animal 3) of the same molecule?
A: 4.688

Q: And the TRAIL (sheet SFig5, animal 3)?
A: 1.603

Q: And the TWAEK (sheet SFig5, animal 3)?
A: 6.152

Q: What about the VEGFA (sheet SFig5, animal 3) of the same molecule?
A: 13.6674

Q: And the bNGF (sheet SFig5, animal 3)?
A: -0.3222
